In patent US8653091B2, “Pyrid-2yl fused heterocyclic compounds, and compositions and uses thereof” (Evotec AG, priority 2007, dated 2014) one finds IC50 data, which are given here for 22 compounds.

One experiment concerns the target P2X3 (Homo sapiens (Human), UniProt P56373). The experiment in a line: Calcium uptake assay (P2X antagonist assay), P2X3. Format: cell-based. Particulars: inhibition of agonist-induced calcium influx. An excerpt:
(§1) Human P2X3 (Accession no. NM_002559), P2X2 (Accession no. NM_170682) and Rat P2X3 (Accession no. NM_031075) and P2X2 (Accession no. NM_053656) are cloned into a mammalian expression vector (e.g., pcDNA5/TO or pcDNA3 Invitrogen). The human P2X2/3 chimera clone is created as described by Neelands et al, and then cloned into an expression vector as above. Receptors are expressed in cells (e.g., HEK293 or 1321N1 (obtained from the ECACC)) via transient transfection using standard lipid mediated transfection, or by creation of stable transfectants for each receptor. For expression of the P2X2/3 heteromeric receptor, the P2X3 expression vector is stably transfected into a cell line already stably expressing P2X2. P2X2/3 heteromer function is isolated using pharmacological methods. Cell lines are maintained in DMEM+5% Glutamax, the appropriate level of selective antibiotic, and 10% heat inactivated FBS.
(§2) Functional activity of compounds at the P2X receptor is determined by measuring their ability to inhibit agonist-induced calcium influx. Compounds are tested for antagonist activity against the P2X2/3 chimera, the P2X3 homomer, or the P2X2/3 heteromer. At the start of each screening day, the agonist EC50 is determined. Compound % inhibition or IC50s are subsequently determined using a pre-determined agonist concentration (EC50-90 depending on cell line) as a stimulus. The agonists used are αβMeATP, ATP, or other ATP analogs. Compounds may be tested at concentrations ranging from 1 μM to 10 μM.
(§3) To test for antagonist activity, cells expressing the appropriate receptor are seeded onto 96 or 384 well plates 18-24 hours prior to assay. On the day of the assay, cells are loaded with calcium-sensitive fluorescent dye (e.g., Fluo-4 no wash reagent-Invitrogen cat#F36206, or the BD™ PBX Calcium Assay Kit—BD cat#640175) in Hank's Buffered Salt Solution (HESS) with up to 10 mM supplemental CaCl2. Plates are incubated at 37° C. and then equilibrated at room temperature. Antagonism of agonist-induced calcium influx is measured using a fluorescent imaging plate reader (e.g. FLIPR^TETRA, Molecular Devices, Sunnyvale, Calif.). The assay comprises two stages: a pre-treatment phase followed by a treatment phase. Compounds may be tested as follows: For the pre-treatment phase, 50 μL of 3× concentration of test compound in HBSS is added to cells containing 100 μL of dye loading media to achieve a final concentration of 1× test compound. For the treatment phase, at a set interval after pre-treatment (1-30 minutes), 50 μL of 1× test compound plus […] solution is added, resulting in a final concentration of 1× compound and 1× agonist. Fluorescence is measured at 0.1-3 second intervals—with an excitation wavelength of 494 nm and an emission wavelength of 515 nm. Responses are measured as (peak fluorescence after agonist addition) minus (baseline fluorescence prior to treatment). Percent inhibition is calculated as follows: […]
(§4) IC50 values are determined by analyzing dose response data in a 4 parameter logistic fit using GraphPad Prizm.

The next experiment addresses P2X2/3 (Homo sapiens (Human), UniProt P56373+Q9UBL9). Description: Calcium uptake assay (P2X antagonist assay), P2X2/3. It is filed as cell-based. The note with it: inhibition of agonist-induced calcium influx.
Text: as §1, §2, §3, §4

Sequence of P2X2/3 (Q9UBL9 whole entry): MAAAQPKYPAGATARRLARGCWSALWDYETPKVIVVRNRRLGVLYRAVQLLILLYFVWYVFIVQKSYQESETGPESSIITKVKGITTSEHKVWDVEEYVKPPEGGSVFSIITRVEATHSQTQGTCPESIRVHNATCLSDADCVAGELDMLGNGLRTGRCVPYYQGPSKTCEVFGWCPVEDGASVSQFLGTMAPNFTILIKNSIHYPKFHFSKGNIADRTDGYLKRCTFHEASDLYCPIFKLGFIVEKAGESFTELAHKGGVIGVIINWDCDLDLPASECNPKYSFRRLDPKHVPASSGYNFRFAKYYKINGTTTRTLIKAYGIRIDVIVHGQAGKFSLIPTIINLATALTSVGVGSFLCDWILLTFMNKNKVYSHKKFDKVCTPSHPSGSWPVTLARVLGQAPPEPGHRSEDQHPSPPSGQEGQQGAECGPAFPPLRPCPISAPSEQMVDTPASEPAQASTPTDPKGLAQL
Sequence of P2X2/3 (P56373 whole entry): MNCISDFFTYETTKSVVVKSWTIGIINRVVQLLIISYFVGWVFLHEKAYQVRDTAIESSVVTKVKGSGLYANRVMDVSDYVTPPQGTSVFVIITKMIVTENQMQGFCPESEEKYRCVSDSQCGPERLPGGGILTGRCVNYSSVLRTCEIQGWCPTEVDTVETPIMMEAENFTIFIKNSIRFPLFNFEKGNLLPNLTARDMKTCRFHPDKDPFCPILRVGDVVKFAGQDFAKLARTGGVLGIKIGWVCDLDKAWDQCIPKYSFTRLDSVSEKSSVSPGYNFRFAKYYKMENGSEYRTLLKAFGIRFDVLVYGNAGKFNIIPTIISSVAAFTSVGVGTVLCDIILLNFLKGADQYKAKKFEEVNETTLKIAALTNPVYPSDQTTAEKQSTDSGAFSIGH
Sequence of P2X3 (P56373 whole entry): as above

For the compound `Cc1ccc(N2CCc3ncnc(NC(C)c4ccccn4)c3C2)nc1` (centres unmarked) [Compound 10, [6-(5-Methyl-pyridin-2-yl)-5,6,7,8-tetrahydro-pyrido[4,3-d]pyrimidin-4-yl]-(1-pyridin-2-yl-ethyl)-amine], the IC50 was determined as 123 nM at P2X3 and 3970 nM at P2X2/3.

As for `Cc1ccc(N2CCc3ncnc(NC(C)c4cccnc4)c3C2)nc1` (centres unmarked) [Compound 11, [6-(5-Methyl-pyridin-2-yl)-5,6,7,8-tetrahydro-pyrido[4,3-d]pyrimidin-4-yl]-(1-pyridin-3-yl-ethyl)-amine], the IC50 on P2X3 worked out at 63 nM; at P2X2/3, 2740 nM.

As to `Cc1ccc(N2CCc3ncnc(NC(C)c4ccccc4F)c3C2)nc1` (centres unmarked) [Compound 12, [1-(2-Fluoro-phenyl)-ethyl]-[6-(5-methyl-pyridin-2-yl)-5,6,7,8-tetrahydro-pyrido[4,3-d]pyrimidin-4-yl]-amine], the half-maximal inhibitory concentration (IC50) on P2X3 came to 88 nM; on P2X2/3 it was 4620 nM.

Take `Cc1ccc(N2CCc3ncnc(NC(C)c4cc(F)cc(F)c4)c3C2)nc1` (centres unmarked) [Compound 17, [1-(3,5-Difluoro-phenyl)-ethyl]-[6-(5-methyl-pyridin-2-yl)-5,6,7,8-tetrahydro-pyrido[4,3-d]pyrimidin-4-yl]-amine]: the half-inhibitory concentration (IC50) was found to be 52 nM at P2X3 and 803 nM at P2X2/3.

Take `Cc1ccc(N2CCc3ncnc(NC(C)c4ccc(F)cc4F)c3C2)nc1` (centres unmarked) [Compound 18, [1-(2,4-Difluoro-phenyl)-ethyl]-[6-(5-methyl-pyridin-2-yl)-5,6,7,8-tetrahydro-pyrido[4,3-d]pyrimidin-4-yl]-amine]: the figures for the IC50 on P2X3 and on P2X2/3 were 50 nM and 3070 nM, respectively.

Regarding `COc1ccc(C(C)Nc2ncnc3c2CN(c2ccc(C)cn2)CC3)cc1F` (centres unmarked) [Compound 21, [1-(3-Fluoro-4-methoxy-phenyl)-ethyl]-[6-(5-methyl-pyridin-2-yl)-5,6,7,8-tetrahydro-pyrido[4,3-d]pyrimidin-4-yl]-amine], the IC50 at P2X3 was found to be 80 nM; at P2X2/3, 1060 nM.

For `Cc1ccc(N2CCc3ncnc(NC(CCO)c4ccccc4)c3C2)nc1` (centres unmarked) [Compound 32, 3-[6-(5-Methyl-pyridin-2-yl)-5,6,7,8-tetrahydro-pyrido[4,3-d]pyrimidin-4-ylamino]-3-phenyl-propan-1-ol], the IC50 at P2X3 came out at 143 nM; at P2X2/3 it was 3880 nM.

For the compound `Cc1ccc([C@@H](C)Nc2ncnc3c2CN(c2ccc(C)cn2)CC3)cc1` [Compound 34], the results for the IC50 at P2X3 and at P2X2/3 were 47 nM and 1460 nM, respectively.

Regarding `Cc1ccc(N2CCc3ncnc(NC(C)c4ccc(Cl)c(F)c4)c3C2)nc1` (centres unmarked) [Compound 39, [1-(4-Chloro-3-fluoro-phenyl)-ethyl]-[6-(5-methyl-pyridin-2-yl)-5,6,7,8-tetrahydro-pyrido[4,3-d]pyrimidin-4-yl]-amine], the IC50 stood at 43 nM at P2X3 and 1420 nM on P2X2/3.

Turning to `COc1cccc([C@@H](C)Nc2ncnc3c2CN(c2ccc(C)cn2)CC3)c1` [Compound 47, [(R)-1-(3-Methoxy-phenyl)-ethyl]-[6-(5-methyl-pyridin-2-yl)-5,6,7,8-tetrahydro-pyrido[4,3-d]pyrimidin-4-yl]-amine], the IC50 on P2X3 was 21 nM; at P2X2/3 it was 705 nM.

As to `Cc1ccc(N2CCc3ncnc(N[C@H](C)c4ccc(F)cc4)c3C2)nc1` [Compound 49, [(R)-1-(4-Fluoro-phenyl)-ethyl]-[6-(5-methyl-pyridin-2-yl)-5,6,7,8-tetrahydro-pyrido[4,3-d]pyrimidin-4-yl]-amine], the results for the half-maximal inhibitory concentration (IC50) on P2X3 and on P2X2/3 were 19 nM and 1220 nM, respectively.

Consider `Cc1ccc(N2CCc3ncnc(N[C@H](C)c4ccc(C(F)(F)F)nc4)c3C2)nc1` [Compound 50, (R)-6-(5-Methylpyridin-2-yl)-N-(1-(6-(trifluoromethyl)pyridin-3-yl)ethyl)-5,6,7,8-tetrahydropyrido[4,3-d]pyrimidin-4-amine], for which the IC50 at P2X3 was 15 nM; at P2X2/3, 279 nM.

As to `Cc1ccc(N2CCc3ncnc(N[C@H](CO)c4ccc(C(F)(F)F)cc4)c3C2)nc1` [Compound 55, (S)-2-(6-(5-Methylpyridin-2-yl)-5,6,7,8-tetrahydropyrido[4,3-d]pyrimidin-4-ylamino)-2-(4-(trifluoromethyl)phenyl)ethanol], the IC50 on P2X3 worked out at 158 nM; at P2X2/3 it was 3970 nM.

In the case of `Cc1ccc(N2CCc3ncnc(NC(CCO)c4ccc(C(F)(F)F)nc4)c3C2)nc1` (centres unmarked) [Compound 56, 3-[6-(5-Methyl-pyridin-2-yl)-5,6,7,8-tetrahydro-pyrido[4,3-d]pyrimidin-4-ylamino]-3-(6-trifluoromethyl-pyridin-3-yl)-propan-1-ol], the IC50 on P2X3 is 67 nM; on P2X2/3, 522 nM.

Turning to `COc1ccc([C@@H](CCO)Nc2ncnc3c2CN(c2ccc(Cl)cn2)CC3)cn1` [Compound 57, (R)-3-[6-(5-Chloro-pyridin-2-yl)-5,6,7,8-tetrahydro-pyrido[4,3-d]pyrimidin-4-ylamino]-3-(6-methoxy-pyridin-3-yl)-propan-1-ol], the half-maximal inhibitory concentration (IC50) was determined as 103 nM on P2X3 and 318 nM at P2X2/3.

For the compound `COc1ccc([C@@H](CCO)Nc2ncnc3c2CN(c2ccc(C)cn2)CC3)cn1` [Compound 58, (R)-3-(6-Methoxy-pyridin-3-yl)-3-[6-(5-methyl-pyridin-2-yl)-5,6,7,8-tetrahydro-pyrido[4,3-d]pyrimidin-4-ylamino]-propan-1-ol], the figures for the IC50 on P2X3 and at P2X2/3 were 29 nM and 83 nM, respectively.

With `COc1ccc([C@@H](CO)Nc2ncnc3c2CN(c2ccc(Cl)cn2)CC3)cn1` [Compound 59, (S)-2-[6-(5-Chloro-pyridin-2-yl)-5,6,7,8-tetrahydro-pyrido[4,3-d]pyrimidin-4-ylamino]-2-(6-methoxy-pyridin-3-yl)-ethanol], the values for the 50% inhibitory concentration (IC50) on P2X3 and at P2X2/3 were 90 nM and 276 nM, respectively.

For the compound `COc1ccc([C@@H](CO)Nc2ncnc3c2CN(c2ccc(C)cn2)CC3)cn1` [Compound 60, (S)-2-(6-Methoxy-pyridin-3-yl)-2-[6-(5-methyl-pyridin-2-yl)-5,6,7,8-tetrahydro-pyrido[4,3-d]pyrimidin-4-ylamino]-ethanol], the half-inhibitory concentration (IC50) on P2X3 was 27 nM; at P2X2/3, 97 nM.

Turning to `Cc1ccc(N2CCc3ncnc(N[C@H](CCO)c4ccc(C)nc4)c3C2)nc1` [Compound 61, (R)-3-(6-Methyl-pyridin-3-yl)-3-[6-(5-methyl-pyridin-2-yl)-5,6,7,8-tetrahydro-pyrido[4,3-d]pyrimidin-4-ylamino]-propan-1-ol], the IC50 on P2X3 turned out to be 28 nM; at P2X2/3, 133 nM.

Turning to `Cc1ccc(N2CCc3ncnc(NC(CO)c4cccnc4)c3C2)nc1` (centres unmarked) [Compound 62, 2-[6-(5-Methyl-pyridin-2-yl)-5,6,7,8-tetrahydro-pyrido[4,3-d]pyrimidin-4-ylamino]-2-pyridin-3-yl-ethanol], the IC50 at P2X3 was 272 nM; at P2X2/3 it was 3090 nM.

Turning to `Cc1ccc(N2CCc3ncnc(N[C@H](CCO)c4ccc(C(F)(F)F)nc4)c3C2)nc1` [Compound 63, (R)-3-[6-(5-Methyl-pyridin-2-yl)-5,6,7,8-tetrahydro-pyrido[4,3-d]pyrimidin-4-ylamino]-3-(6-trifluoromethyl-pyridin-3-yl)-propan-1-ol], the IC50 on P2X3 came to 24 nM; on P2X2/3, 335 nM.

On to `Cc1ccc(N2CCc3ncnc(N[C@H](C)c4cnc(C)nc4)c3C2)nc1` [Compound 64, [6-(5-Methyl-pyridin-2-yl)-5,6,7,8-tetrahydro-pyrido[4,3-d]pyrimidin-4-yl]-[(R)-1-(2-methyl-pyrimidin-5-yl)-ethyl]-amine], for which the IC50 is 17 nM on P2X3 and 260 nM at P2X2/3.
